What was measured:
MDA-MB-231 cells = assay: MTT cell viability assay, MDA-MB-231; format: cell-based; settings: Homo sapiens, MDA-MB-231, 48 h, read-out: Cell growth % at 10 µM, MDA-MB-231
Description: (§1) The cell lines were obtained from the American Type Culture Collection (ATCC). Five tumor cell lines (MDA-MB-231, MCF-7, HCT116, HTB-54, and DU-145) and two non-tumorigenic cells (184B5 and BEAS-2B) were grown in RPMI 1640 medium (Gibco), and the HT-29 tumor cell line was grown in McCoy’s medium. Both mediums were supplemented with 10% fetal bovine serum (FBS; Gibco) and 1% antibiotics (10.00 units/mL penicillin and 10.00 μg/mL streptomycin; Gibco). Cells were preserved in tissue culture flasks at 37 °C and 5% CO2. The culture medium was replaced every three days.
(§2) The effect of each compound on cell viability was tested using the MTT assay. […] Selected compounds were then tested at seven different concentrations (0.5–100 μM) in MCF-7, HCT116, HT-29, HTB-54, 184B5 and BEAS-2B cells. Cells were seeded at 10^4 per well onto flat-bottomed 96-well culture plates. They were treated with either DMSO or increasing concentration of the corresponding compound for 48 h. Then, they were incubated with 20 μL of 3-(4,5-dimethylthiazol-2-yl)-2,5-diphenyltetrazolium bromide (MTT) (2 mg /mL stock; Aldrich) for 2,5 h and analyzed for their ability to generate a purple formazan dye. These formazan crystals were dissolved in 50 μL of DMSO. The absorbance was measured at a wavelength of 550 nm and the ratio of viable cells was calculated.
(§3) Results are expressed as cell viability % at 10 μM. Selectivity index were calculated as the ratio of the IC50 values determined for the non-malignant and the tumor cells in breast (IC50 (184B5)/IC50 (MCF-7)) and lung (IC50 (BEAS-2B)/IC50 (HTB-54)) cell lines. Data were obtained from at least three independent experiments performed in triplicates.

HTB-54 cells = assay: MTT cell viability assay, HTB-54; format: cell-based; settings: HTB-54; 10 µM, 48 h, MTT; read-out: Cell growth % at 10 µM, HTB-54
Description: as §1, §2, §3

AChE = target: T1, AChE (Rattus norvegicus, UniProt P37136); assay: AChE inhibition by Ellman's method (rat frontal cortex homogenate); format: biochemical; settings: at 10^−6 M, Ellman's method
T1 construct: from tissue; host or cells: frontal cortex of male Wistar rats (crude homogenate)
T1 sequence (P37136 32-614): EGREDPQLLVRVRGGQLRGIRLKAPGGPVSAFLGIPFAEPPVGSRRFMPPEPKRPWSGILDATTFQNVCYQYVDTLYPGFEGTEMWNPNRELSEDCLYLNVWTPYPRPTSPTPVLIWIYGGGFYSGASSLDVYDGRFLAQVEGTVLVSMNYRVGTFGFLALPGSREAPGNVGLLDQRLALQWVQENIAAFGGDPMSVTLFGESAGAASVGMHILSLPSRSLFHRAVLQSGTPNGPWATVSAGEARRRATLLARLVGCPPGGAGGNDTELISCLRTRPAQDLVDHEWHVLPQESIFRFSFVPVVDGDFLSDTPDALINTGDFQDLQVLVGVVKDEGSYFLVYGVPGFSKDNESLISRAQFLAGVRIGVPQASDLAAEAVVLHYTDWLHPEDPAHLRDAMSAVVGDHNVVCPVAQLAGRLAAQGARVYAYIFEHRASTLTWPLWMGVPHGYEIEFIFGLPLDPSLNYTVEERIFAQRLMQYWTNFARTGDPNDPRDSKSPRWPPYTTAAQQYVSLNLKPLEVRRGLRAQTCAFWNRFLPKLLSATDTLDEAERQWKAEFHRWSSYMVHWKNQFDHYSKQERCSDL
Description: Frontal cortex tissue obtained from male Wistar rats was homogenized in 39 volumes of 75 mM sodium phosphate buffer (pH 7.4). A mixture of 260 μL containing the compounds assessed, acetylthiocholine iodide and 5 μL tissue homogenate was incubated for 8 min. The reaction was then terminated by adding 50 μL 3% (w/v) sodium dodecyl sulphate followed by 50 μL 0.2% (w/v) 5,5′-dithio-bis(2-nitrobenzoic) acid to produce the yellow anion of 5-thio-2-nitro-benzoic-acid. The extent of the color production was measured spectrophotometrically at 405 nm using Multiskan Ex (Thermo Electron Corporation). […] Results are expressed as the mean ± SD and each experiment was repeated three times.

HT-29 cells = assay: MTT cell viability assay, HT-29; format: cell-based; settings: Homo sapiens, HT-29, 10 µM, 48 h, read-out: Cell growth % at 10 µM, HT-29
Description: as §1, §2, §3

DU-145 cells = assay: MTT cell viability assay, DU-145; format: cell-based; settings: Homo sapiens, DU-145, 48 h, read-out: Cell growth % at 10 µM, DU-145
Description: as §1, §2, §3

Compound	viability at 10 µM (MDA-MB-231 cells) [%]	viability at 10 µM (HTB-54 cells) [%]	inhibition at 1 µM (AChE) [%]	viability at 10 µM (HT-29 cells) [%]	viability at 10 µM (DU-145 cells) [%]
C=CC[Se]C(=O)c1cccnc1Cl [Compound 8a, Se-allyl 2-chloropyridine-3-carboselenoate]	37.1 ± 4.7	25.8 ± 5.2	6.3 ± 4.1	62.2 ± 16.1	49.5 ± 6.6
C#CC[Se]C(=O)c1cccnc1Cl [Compound 8b, Se-prop-2-ynyl 2-chloropyridine-3-carboselenoate]	92.9 ± 16.5	99.4 ± 16.2	17.1 ± 10.1	87.7 ± 10.1	77.1 ± 13.9
C=CC[Se]C(=O)c1cccs1 [Compound 9a, Se-allyl thiophene-2-carboselenoate]	89.4 ± 4.9	64.8 ± 8.5	25.9 ± 2.4	99.5 ± 8.3	48.6 ± 6.2
C#CC[Se]C(=O)c1cccs1 [Compound 9b, Se-prop-2-ynyl thiophene-2-carboselenoate]	70.2 ± 6.9	58.9 ± 7.8	20.6 ± 2.7	76 ± 13.5	22.3 ± 2.7
C#CC[Se]C(=O)c1sccc1Cl [Compound 10b, Se-prop-2-ynyl 3-chlorothiophene-2-carboselenoate]	62.5 ± 7.7	81.2 ± 11.6	24.4 ± 7.1	80.2 ± 10.9	66.6 ± 8.7
C=CC[Se]C(=O)c1ccco1 [Compound 11a, Se-allyl 4-furan-2-carboselenoate]	34.1 ± 10.6	30.7 ± 6.2	18.6 ± 2.8	79.8 ± 16.3	35.3 ± 5.8
C#CC[Se]C(=O)c1ccco1 [Compound 11b, Se-prop-2-ynyl furan-2-carboselenoate]	99 ± 11.2	75.4 ± 15.5	27.2 ± 4.1	> 100	70 ± 4.5
C=CC[Se]C(=O)c1ccno1 [Compound 12a, Se-allyl isoxazole-5-carboselenoate]	96.8 ± 15.8	95.5 ± 5.9	4.2 ± 6.7	70.7 ± 10.7	62.7 ± 4.7
C#CC[Se]C(=O)c1ccno1 [Compound 12b, Se-prop-2-ynyl isoxazole-5-carboselenoate]	92.5 ± 15.1	97.6 ± 7.1	21.7 ± 7.9	81.3 ± 11.1	95.1 ± 12.3
C#CC[Se]C(=O)c1ccccc1O [Compound 13b, Se-prop-2-ynyl 2-hydroxybenzoselenoate]	52.3 ± 7.9	82.1 ± 7.6	21.5 ± 9.5	70.2 ± 13.2	26.8 ± 5.5
C#CC[Se]C(=O)c1ccccc1OC(C)=O [Compound 14b, 2-(prop-2-ynylselanyl)carbonylphenylacetate]	52.3 ± 7.1	78.9 ± 9	21.1 ± 5.2	65.6 ± 7.3	25.5 ± 6.2
C#CC[Se]C(=O)C(C)c1ccc(CC(C)C)cc1 (centres unmarked) [Compound 15b, Se-prop-2-ynyl 2-(4-isobutylphenyl)propaneselenoate]	59.7 ± 15.7	95.6 ± 5.7	8.5 ± 11.1	59.3 ± 4	34.7 ± 6.3
C#CC[Se]C(=O)[C@@H](C)c1ccc2cc(OC)ccc2c1 [Compound 16b, Se-prop-2-ynyl (S)-2-(6-methoxynaphthalen-2-yl)propaneselenoate]	29.8 ± 9.6	> 100	16.2 ± 2.3	65.7 ± 10	66.4 ± 4.4

From article PMC9854712 (Antioxidants, 2023)
